Reference: patent US6503919B1, “Compounds of 7-oxo-2,3,7,14-tetrahydro-1H-benzo[b]pyrano[3,2-h]acridin carboxylate” (Les Laboratoires Server, priority 1999, dated 2003)

Tests used:
[1] = tested on: murine leukaemia L1210 and human colon carcinoma HT-29; assay: In vitro cytotoxicity, Microculture Tetrazolium Assay; format: cell-based; details: 4 doubling periods: 48 hours (L1210) or 96 hours (HT-29); cell line not stated; read-out: IC50 (cytotoxic concentration that inhibits the proliferation of the treated cells by 50%)
Method: The murine leukaemia L1210 and the human colon carcinoma HT-29 were used in vitro. The cells are cultured in complete RPMI 1640 culture medium containing 10% foetal calf serum, 2 mM glutamine, 50 U/ml of penicillin, 50 μg/ml of streptomycin and 10 mM Hepes, pH: 7.4. The cells are distributed in microplates and exposed to the cytotoxic compounds for 4 doubling periods, that is to say 48 hours (L1210) or 96 hours (HT-29). The number of viable cells is then quantified by a colorimetric assay, the Microculture Tetrazolium Assay (J. Carmichael et al., Cancer Res., 47, 936-942, (1987)). The results are expressed as IC50 values, which is the cytotoxic concentration that inhibits the proliferation of the treated cells by 50%.

P 388 (murine leukaemia) = assay: Anti-tumour activity on the leukaemia P 388; format: in vivo; details: B6D2F1 mice, intraperitoneal route on day 1
Method: The line P 388 (murine leukaemia) was supplied by the National Cancer Institute (Frederick, USA). The tumour cells (10^6 cells) were inoculated on day 0 into the peritoneal cavity of female B6D2F1 mice (Iffa Credo, France). Six mice weighing from 18 to 20 g were used per experimental group. The compounds were administered by the intraperitoneal route on day 1.
The anti-tumour activity is expressed as % of T/C: [formula]

SMILES	melting point [°C]	IC50 [1] [nM]	anti-tumour activity in the P 388 model (in words) (P 388 (murine leukaemia))
COc1cc2c(c3c1c(=O)c1cc4ccccc4cc1n3C)[C@@H](OC(C)=O)[C@@H](OC(=O)CCCC(=O)O)C(C)(C)O2 (racemic) [Example 3, (±)-cis-5-{[1-(Acetyloxy)-6-methoxy-3,3,14-trimethyl-7-oxo-2,3,7,14-tetrahydro-1H-benzo[b]pyrano[3,2-h]acridin-2-yl]oxy}-5-oxopentanoic acid]	155		
COc1cc2c(c3c1c(=O)c1ccccc1n3C)C=CC(C)(C)O2 [acronycine]			only marginally active

The next lines start with results.

melting point [°C]	SMILES	IC50 [1] [nM]	anti-tumour activity in the P 388 model (in words) (P 388 (murine leukaemia))
154	COc1cc2c(c3c1c(=O)c1cc4ccccc4cc1n3C)[C@@H](OC(C)=O)[C@@H](OC(=O)CCC(=O)O)C(C)(C)O2 (racemic) [Example 1, (±)-cis-4-{[1-(Acetyloxy)-6-methoxy-3,3,14-trimethyl-7-oxo-2,3,7,14-tetrahydro-1H-benzo[b]pyrano[3,2-h]acridin-2-yl]oxy}-4-oxobutanoic acid]	2000	
128	COc1cc2c(c3c1c(=O)c1cc4ccccc4cc1n3C)[C@@H](OC(=O)CCC(=O)O)[C@@H](OC(=O)CCC(=O)O)C(C)(C)O2 (racemic) [Example 7, (±)-cis-4-({1-[(3-Carboxypropanoyl)oxy]-6-methoxy-3,3,14-trimethyl-7-oxo-2,3,7,14-tetrahydro-1H-benzo[b]pyrano[3,2-h]acridin-2-yl}oxy)-4-oxobutanoic acid]	2300	
118	COc1cc2c(c3c1c(=O)c1cc4ccccc4cc1n3C)[C@@H](OC(=O)CCCC(=O)O)[C@@H](OC(=O)CCCC(=O)O)C(C)(C)O2 (relative stereo) [Example 22, cis-5-({1-[(4-Carboxybutanoyl)oxy]6-methoxy-3,3,14-trimethyl-7-oxo-2,3,7,14-tetrahydro-1H-benzo[b]pyrano[3,2-h]acridin-2-yl}oxy)-5-oxopentanoic acid]		
